# Where two headings read alike, the source gives them in different places.
# Test system: hiPSC-CMs (iCell-Cardiomyocytes^2)
# In short: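 Monolayers of hiPSC-CMs on fibronectin-coated MEA plates, 50 K/well, kept at 37°C, 5% CO2; compounds added in 0.1% final DMSO after 5-min baseline. Field potential and impedance parameters expressed as mean ± SD percent change from baseline; arrhythmic events noted; cytotoxicity fluorescence normalized to DMSO, Kruskal-Wallis.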
smiles,measurement,setting,value
Cc1cn(-c2cc(NC(=O)c3ccc(C)c(Nc4nccc(-c5cccnc5)n4)c3)cc(C(F)(F)F)c2)cn1 [Nilotinib],BR (beat rate) % change from baseline,"0.01 µM, 2h",1±2%
same,"Beating below threshold, number of observations/total well numbers","0.01 µM, 2h",0/5
same,"Cessation of beating, number of observations/total well numbers","0.01 µM, 2h",0/5
same,"EAD, number of observations/total well numbers","0.01 µM, 2h",0/5
same,"FPD (field-potential duration), % change from baseline","0.01 µM, 2h",3.9±3.8%
same,"FPDc (field-potential duration corrected by beat-rate), % change from baseline","0.01 µM, 2h",4.1±4%
same,"Flat T-wave-like, number of observations/total well numbers","0.01 µM, 2h",0/5
same,BR (beat rate) % change from baseline,"0.01 µM, 24h",-1±3%
same,"Beating below threshold, number of observations/total well numbers","0.01 µM, 24h",0/5
same,"Cessation of beating, number of observations/total well numbers","0.01 µM, 24h",0/5
same,"EAD, number of observations/total well numbers","0.01 µM, 24h",0/5
same,"FPD (field-potential duration), % change from baseline","0.01 µM, 24h",6.4±4.8%
same,"FPDc (field-potential duration corrected by beat-rate), % change from baseline","0.01 µM, 24h",6.1±4.9%
same,"Flat T-wave-like, number of observations/total well numbers","0.01 µM, 24h",0/5
same,BR (beat rate) % change from baseline,"0.01 µM, 48h",-3±2%
same,"Beating below threshold, number of observations/total well numbers","0.01 µM, 48h",0/5
same,"Cessation of beating, number of observations/total well numbers","0.01 µM, 48h",0/5
same,"EAD, number of observations/total well numbers","0.01 µM, 48h",0/5
same,"FPD (field-potential duration), % change from baseline","0.01 µM, 48h",12.9±12.2%
same,"FPDc (field-potential duration corrected by beat-rate), % change from baseline","0.01 µM, 48h",11.9±11.5%
same,"Flat T-wave-like, number of observations/total well numbers","0.01 µM, 48h",0/5
same,BR (beat rate) % change from baseline,"0.01 µM, 72h",-8±2%
same,"Beating below threshold, number of observations/total well numbers","0.01 µM, 72h",0/5
same,"Cessation of beating, number of observations/total well numbers","0.01 µM, 72h",0/5
same,"EAD, number of observations/total well numbers","0.01 µM, 72h",0/5
same,"FPD (field-potential duration), % change from baseline","0.01 µM, 72h",10.1±2.4%
same,"FPDc (field-potential duration corrected by beat-rate), % change from baseline","0.01 µM, 72h",7.1±2.3%
same,"Flat T-wave-like, number of observations/total well numbers","0.01 µM, 72h",0/5
same,BR (beat rate) % change from baseline,"0.01 µM, 96h",-14±3%
same,"Beating below threshold, number of observations/total well numbers","0.01 µM, 96h",0/5
same,"Cessation of beating, number of observations/total well numbers","0.01 µM, 96h",0/5
same,"EAD, number of observations/total well numbers","0.01 µM, 96h",0/5
same,"FPD (field-potential duration), % change from baseline","0.01 µM, 96h",13.9±2.5%
same,"FPDc (field-potential duration corrected by beat-rate), % change from baseline","0.01 µM, 96h",8.7±2.6%
same,"Flat T-wave-like, number of observations/total well numbers","0.01 µM, 96h",0/5
same,BR (beat rate) % change from baseline,"0.1 µM, 2h",-1±1%
same,"Beating below threshold, number of observations/total well numbers","0.1 µM, 2h",0/5
same,"Cessation of beating, number of observations/total well numbers","0.1 µM, 2h",0/5
same,"EAD, number of observations/total well numbers","0.1 µM, 2h",0/5
same,"FPD (field-potential duration), % change from baseline","0.1 µM, 2h",8.9±9.8%
same,"FPDc (field-potential duration corrected by beat-rate), % change from baseline","0.1 µM, 2h",8.6±10.1%
same,"Flat T-wave-like, number of observations/total well numbers","0.1 µM, 2h",0/5
same,BR (beat rate) % change from baseline,"0.1 µM, 24h",-8±3%
same,"Beating below threshold, number of observations/total well numbers","0.1 µM, 24h",0/5
same,"Cessation of beating, number of observations/total well numbers","0.1 µM, 24h",0/5
same,"EAD, number of observations/total well numbers","0.1 µM, 24h",0/5
same,"FPD (field-potential duration), % change from baseline","0.1 µM, 24h",19.8±3.9 %
same,"FPDc (field-potential duration corrected by beat-rate), % change from baseline","0.1 µM, 24h",16.6±4.1 %
same,"Flat T-wave-like, number of observations/total well numbers","0.1 µM, 24h",0/5
same,BR (beat rate) % change from baseline,"0.1 µM, 48h",-8±4%
same,"Beating below threshold, number of observations/total well numbers","0.1 µM, 48h",0/5
same,"Cessation of beating, number of observations/total well numbers","0.1 µM, 48h",0/5
same,"EAD, number of observations/total well numbers","0.1 µM, 48h",0/5
same,"FPD (field-potential duration), % change from baseline","0.1 µM, 48h",15.4±2.6%
same,"FPDc (field-potential duration corrected by beat-rate), % change from baseline","0.1 µM, 48h",12.7±3%
same,"Flat T-wave-like, number of observations/total well numbers","0.1 µM, 48h",0/5
same,BR (beat rate) % change from baseline,"0.1 µM, 72h",-11±4%
same,"Beating below threshold, number of observations/total well numbers","0.1 µM, 72h",0/5
same,"Cessation of beating, number of observations/total well numbers","0.1 µM, 72h",0/5
same,"EAD, number of observations/total well numbers","0.1 µM, 72h",0/5
same,"FPD (field-potential duration), % change from baseline","0.1 µM, 72h",17.3±1.9%
same,"FPDc (field-potential duration corrected by beat-rate), % change from baseline","0.1 µM, 72h",12.5±1.7%
same,"Flat T-wave-like, number of observations/total well numbers","0.1 µM, 72h",0/5
same,BR (beat rate) % change from baseline,"0.1 µM, 96h",-18±4%
same,"Beating below threshold, number of observations/total well numbers","0.1 µM, 96h",0/5
same,"Cessation of beating, number of observations/total well numbers","0.1 µM, 96h",0/5
same,"EAD, number of observations/total well numbers","0.1 µM, 96h",0/5
same,"FPD (field-potential duration), % change from baseline","0.1 µM, 96h",19.6±3.2%
same,"FPDc (field-potential duration corrected by beat-rate), % change from baseline","0.1 µM, 96h",11.8±4.2%
same,"Flat T-wave-like, number of observations/total well numbers","0.1 µM, 96h",0/5
same,BR (beat rate) % change from baseline,"0.3 µM, 2h",-4±1%
same,"Beating below threshold, number of observations/total well numbers","0.3 µM, 2h",0/5
same,"Cessation of beating, number of observations/total well numbers","0.3 µM, 2h",0/5
same,"EAD, number of observations/total well numbers","0.3 µM, 2h",0/5
same,"FPD (field-potential duration), % change from baseline","0.3 µM, 2h",22.4±5.4 %
same,"FPDc (field-potential duration corrected by beat-rate), % change from baseline","0.3 µM, 2h",20.8±5.2 %
same,"Flat T-wave-like, number of observations/total well numbers","0.3 µM, 2h",0/5
same,BR (beat rate) % change from baseline,"0.3 µM, 24h",-17±2 %
same,"Beating below threshold, number of observations/total well numbers","0.3 µM, 24h",0/5
same,"Cessation of beating, number of observations/total well numbers","0.3 µM, 24h",0/5
same,"EAD, number of observations/total well numbers","0.3 µM, 24h",0/5
same,"FPD (field-potential duration), % change from baseline","0.3 µM, 24h",61.6±9.1 %
same,"FPDc (field-potential duration corrected by beat-rate), % change from baseline","0.3 µM, 24h",52.4±8.3 %
same,"Flat T-wave-like, number of observations/total well numbers","0.3 µM, 24h",0/5
same,BR (beat rate) % change from baseline,"0.3 µM, 48h",-13±1%
same,"Beating below threshold, number of observations/total well numbers","0.3 µM, 48h",0/5
same,"Cessation of beating, number of observations/total well numbers","0.3 µM, 48h",0/5
same,"EAD, number of observations/total well numbers","0.3 µM, 48h",0/5
same,"FPD (field-potential duration), % change from baseline","0.3 µM, 48h",46.7±15.8 %
same,"FPDc (field-potential duration corrected by beat-rate), % change from baseline","0.3 µM, 48h",39.9±14.5 %
same,"Flat T-wave-like, number of observations/total well numbers","0.3 µM, 48h",0/5
same,BR (beat rate) % change from baseline,"0.3 µM, 72h",-19±3 %
same,"Beating below threshold, number of observations/total well numbers","0.3 µM, 72h",0/5
same,"Cessation of beating, number of observations/total well numbers","0.3 µM, 72h",0/5
same,"EAD, number of observations/total well numbers","0.3 µM, 72h",0/5
same,"FPD (field-potential duration), % change from baseline","0.3 µM, 72h",59.3±17.6 %
same,"FPDc (field-potential duration corrected by beat-rate), % change from baseline","0.3 µM, 72h",48.5±15 %
same,"Flat T-wave-like, number of observations/total well numbers","0.3 µM, 72h",0/5
same,BR (beat rate) % change from baseline,"0.3 µM, 96h",-23±2%
same,"Beating below threshold, number of observations/total well numbers","0.3 µM, 96h",0/5
same,"Cessation of beating, number of observations/total well numbers","0.3 µM, 96h",0/5
same,"EAD, number of observations/total well numbers","0.3 µM, 96h",0/5
same,"FPD (field-potential duration), % change from baseline","0.3 µM, 96h",57±11 %
same,"FPDc (field-potential duration corrected by beat-rate), % change from baseline","0.3 µM, 96h",44.7±10.1 %
same,"Flat T-wave-like, number of observations/total well numbers","0.3 µM, 96h",1/5
same,wells displaying EAD-like events,1 µM,one of five wells
same,BR (beat rate) % change from baseline,"1 µM, 2h",-15±5 %
same,"Beating below threshold, number of observations/total well numbers","1 µM, 2h",0/5
same,"Cessation of beating, number of observations/total well numbers","1 µM, 2h",0/5
same,"EAD, number of observations/total well numbers","1 µM, 2h",1/5
same,"FPD (field-potential duration), % change from baseline","1 µM, 2h",80.6±28.8 %
same,"FPDc (field-potential duration corrected by beat-rate), % change from baseline","1 µM, 2h",70.6±24.2 %
same,"Flat T-wave-like, number of observations/total well numbers","1 µM, 2h",0/5
same,BR (beat rate) % change from baseline,"1 µM, 24h",-42±3 %
same,"Beating below threshold, number of observations/total well numbers","1 µM, 24h",0/5
same,"Cessation of beating, number of observations/total well numbers","1 µM, 24h",0/5
same,"EAD, number of observations/total well numbers","1 µM, 24h",1/5
same,"FPD (field-potential duration), % change from baseline","1 µM, 24h",264.1±51.3 %
same,"FPDc (field-potential duration corrected by beat-rate), % change from baseline","1 µM, 24h",200.7±36.5 %
same,"Flat T-wave-like, number of observations/total well numbers","1 µM, 24h",2/5
same,BR (beat rate) % change from baseline,"1 µM, 48h",-37±3 %
same,"Beating below threshold, number of observations/total well numbers","1 µM, 48h",0/5
same,"Cessation of beating, number of observations/total well numbers","1 µM, 48h",0/5
same,"EAD, number of observations/total well numbers","1 µM, 48h",1/5
same,"FPD (field-potential duration), % change from baseline","1 µM, 48h",209.3±40.8 %
same,"FPDc (field-potential duration corrected by beat-rate), % change from baseline","1 µM, 48h",164.9±31.8 %
same,BR (beat rate) % change from baseline,"1 µM, 72h",-44±3 %
same,"Beating below threshold, number of observations/total well numbers","1 µM, 72h",0/5
same,"Cessation of beating, number of observations/total well numbers","1 µM, 72h",0/5
same,"EAD, number of observations/total well numbers","1 µM, 72h",1/5
same,"FPD (field-potential duration), % change from baseline","1 µM, 72h",260.2±58.2 %
same,"FPDc (field-potential duration corrected by beat-rate), % change from baseline","1 µM, 72h",196.4±43 %
same,"Flat T-wave-like, number of observations/total well numbers","1 µM, 72h",1/5
same,BR (beat rate) % change from baseline,"1 µM, 96h",-43±3 %
same,"Beating below threshold, number of observations/total well numbers","1 µM, 96h",0/5
same,"Cessation of beating, number of observations/total well numbers","1 µM, 96h",0/5
same,"EAD, number of observations/total well numbers","1 µM, 96h",1/5
same,"FPD (field-potential duration), % change from baseline","1 µM, 96h",208.7±49.5 %
same,"FPDc (field-potential duration corrected by beat-rate), % change from baseline","1 µM, 96h",156.3±38.4 %
same,"Flat T-wave-like, number of observations/total well numbers","1 µM, 96h",1/5
same,prolongation of FPD,"1 and 0.3 µM, acute and chronic time points",significant dose-dependent prolongation of the FPD
same,cessation of beating,any concentration,no cessation of beating occurred in any concentration

# Reference: paper PMC10364322, “Evaluation of chronic drug-induced electrophysiological and cytotoxic effects using human-induced pluripotent stem cell-derived cardiomyocytes (hiPSC-CMs)” (Frontiers in Pharmacology, 2023)
